According to PMC13358776, “Discovery of Two GSK3β Inhibitors from Sophora flavescens Ait. using Structure-based Virtual Screening and Bioactivity Evaluation” (Current Computer-Aided Drug Design, 2024):

Molecular target: T1, GSK3β (Homo sapiens, UniProt P49841)
T1 construct: gene GSK3B
Test: Kinase-Glo Plus luminescent enzymatic assay, […] ATP
Format: biochemical

T1 sequence (P49841 whole entry): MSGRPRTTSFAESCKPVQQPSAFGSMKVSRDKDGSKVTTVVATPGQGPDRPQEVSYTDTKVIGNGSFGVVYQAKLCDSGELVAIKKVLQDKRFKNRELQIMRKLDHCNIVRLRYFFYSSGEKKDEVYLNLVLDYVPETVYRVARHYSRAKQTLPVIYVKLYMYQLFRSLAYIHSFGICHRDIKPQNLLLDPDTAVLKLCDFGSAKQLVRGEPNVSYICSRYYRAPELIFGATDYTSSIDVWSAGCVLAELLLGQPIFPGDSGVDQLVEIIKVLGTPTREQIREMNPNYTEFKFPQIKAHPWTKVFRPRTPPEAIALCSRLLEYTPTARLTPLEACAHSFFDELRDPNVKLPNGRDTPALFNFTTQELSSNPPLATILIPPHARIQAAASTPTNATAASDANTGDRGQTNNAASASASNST

Substance: kushenol F [MOL006617]
- IC50: 4.96 ± 1.29 µM
